The values that follow come from patent US7807672B2, “Compounds that are ERK inhibitors” (Schering Corporation, priority 2006, dated 2010).

Molecules are shown by their SMILES.

fully phosphorylated, active Mouse ERK2 protein, sequence (P63085 whole entry): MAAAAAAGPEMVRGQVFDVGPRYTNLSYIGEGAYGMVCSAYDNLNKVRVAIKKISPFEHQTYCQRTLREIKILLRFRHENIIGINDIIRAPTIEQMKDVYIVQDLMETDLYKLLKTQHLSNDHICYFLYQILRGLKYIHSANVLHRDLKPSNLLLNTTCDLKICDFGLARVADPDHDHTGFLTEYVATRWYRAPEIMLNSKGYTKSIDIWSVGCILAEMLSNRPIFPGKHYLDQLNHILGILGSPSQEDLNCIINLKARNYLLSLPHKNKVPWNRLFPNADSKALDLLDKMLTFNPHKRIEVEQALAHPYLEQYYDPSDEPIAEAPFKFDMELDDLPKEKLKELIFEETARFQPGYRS

The assay concerns the target fully phosphorylated, active Mouse ERK2 protein (Mus musculus, UniProt P63085). The assay can be described thus: Active ERK2 assay (AERK2), IMAP format. The assay is classed as biochemical. Conditions: activated ERK2, IMAP fluorescence polarization, 30 μM ATP. As for the experimental part: 14 μl of kinase buffer (10 mM Tris.HCl pH 7.2, 10 mM MgCl2, 0.01% Tween-20, 1 mM DTT) containing 0.4 ng unphosphorylated Mouse ERK2 protein was added to each well of a black 384-well assay plate. […] DMSO concentration during initial incubation is 6.7%. […] DMSO concentration during ERK activation was 4%. After one hour, reactions were terminated by addition of 60 μl IMAP detections beads in binding buffer (Molecular Devices). Binding was allowed to equilibrate for 30 minutes before reading the plate on an LJL Analyst Fluorescence Polarization plate reader.
Activated ERK2 activity was also determined in the IMAP assay format using the procedure outlined above. […] Reactions proceeded for 30 minutes before termination by addition of 60 μl IMAP detection beads in binding buffer. Plates were read as above after 30 minute binding equilibration.
Take `CC(=O)c1cnc(-c2ccc(N3CCN(C(=O)CN4CC[C@@H](C(=O)Nc5ccc(O)c(Cl)c5)C4)CC3)cc2)nc1` [Example 20]: half-maximal inhibition (IC50) required 0.044 µM.

Take `O=C(Nc1ccc(O)c(Cl)c1)[C@@H]1CCN(CC(=O)N2C[C@@H]3C[C@H]2CN3c2ccc(-c3ncccn3)cc2)C1` [Example 19]: the IC50 (usually the midpoint of a concentration-inhibition curve) worked out at 0.034 µM.

Consider `O=C(Nc1ccc(O)c(C(F)(F)F)c1)[C@@H]1CCN(CC(=O)N2CCN(c3ccc(-c4ncccn4)cc3)CC2)C1` [Example 1], for which the IC50 came out at 0.076 µM.

Turning to `O=C(Nc1ccc(O)c(C2CC2)c1)[C@@H]1CCN(CC(=O)N2CCN(c3ccc(-c4ncccn4)cc3)CC2)C1` [Example 119], the IC50 is 0.039 µM.

Regarding `CO/N=C(\C)c1cnc(-c2ccc(N3CCN(C(=O)CN4CC[C@@H](C(=O)Nc5ccc(O)c(Cl)c5)C4)CC3)cc2)nc1` [Example 25], the IC50 is 0.018 µM.

In turn, `C/C(=N\O)c1cnc(-c2ccc(N3CCN(C(=O)CN4CC[C@@H](C(=O)Nc5ccc(O)c(Cl)c5)C4)CC3)cc2)nc1` [Example 23] registered a half-maximal inhibitory concentration (IC50) of 0.057 µM.

Take `CC(C)c1cc(NC(=O)[C@@H]2CCN(CC(=O)N3C[C@@H]4C[C@H]3CN4c3ccc(-c4ncccn4)cc3)C2)ccc1O` [Example 196]: the IC50 is 0.038 µM.

On to `O=C(Nc1ccc(O)c(-c2ccc(F)cc2)c1)[C@@H]1CCN(CC(=O)N2CCN(c3ccc(-c4ncccn4)cc3)CC2)C1` [Example 212], for which it took 0.053 µM to reach half-maximal inhibition (IC50).

`CC(C)c1cc(NC(=O)[C@@H]2CCN(CC(=O)N3C[C@@H]4C[C@H]3CN4c3ccc(-c4cnccn4)cc3)C2)ccc1O` [Example 197] had an IC50 of 0.04 µM.
